ChEMBL document CHEMBL1135348, “Synthesis and anticancer evaluation of vitamin K(3) analogues” (Bioorg Med Chem Lett, 2002)

Test system: A549
Assay: Concentration required for 50% inhibition of growth in human lung carcinoma cell line was determined
Type: functional, cell-based
Conditions: not given

IC50 | Structure (SMILES)
> 10 µM | CC1=C(SCCCO)C(=O)c2ccccc2C1=O
> 10 µM | CC1=C(SCCCCO)C(=O)c2ccccc2C1=O
> 10 µM | CC1=C(SCCCCCCO)C(=O)c2ccccc2C1=O
> 10 µM | CC1=C(SCCO)C(=O)c2ccccc2C1=O
> 10 µM | CC1=C(SC(C)C(C)O)C(=O)c2ccccc2C1=O (stereo not drawn)
4.74 µM | CC1=C(SCC(C)O)C(=O)c2ccccc2C1=O (racemic)

Test system: not listed separately
Assay: Dose required for 50% inhibition of growth of Hep3B cells
Type: functional, Hep 3B2
Conditions: Homo sapiens, read-out: ID50 (the source's name)

Structure (SMILES) | IC50
CCCCC1=C(C)C(=O)c2ccccc2C1=O | 78 µM
CCCCCCCCSC1=C(C)C(=O)c2ccccc2C1=O | 100 µM
CC1=C(SCCO)C(=O)c2ccccc2C1=O | 5.6 µM
CCCCOC1=C(C)C(=O)c2ccccc2C1=O | 55 µM
CCCCCCCCOC1=C(C)C(=O)c2ccccc2C1=O | 140 µM
CCCSC1=C(C)C(=O)c2ccccc2C1=O | 14 µM
CCCCSC1=C(C)C(=O)c2ccccc2C1=O | 15 µM
CC1=CC(=O)c2ccccc2C1=O [MENADIONE] | 10 µM

Test system: Detroit 551
Assay: Concentration required for 50% inhibition of growth in normal human embryonic skin fibroblast cell line was determined
Type: functional, cell-based
Conditions: not given

Structure (SMILES) | IC50
CC1=C(SCCCCO)C(=O)c2ccccc2C1=O | 7.57 µM
CC1=C(SCCCCCCO)C(=O)c2ccccc2C1=O | > 10 µM
CC1=C(SC(C)C(C)O)C(=O)c2ccccc2C1=O (stereo not drawn) | > 10 µM

Test system: NPC-TW-039
Assay: Concentration required for 50% inhibition of growth in human nasopharyngeal carcinoma (TW-039) cell line was determined
Conditions: not given

IC50 | Structure (SMILES)
> 10 µM | CC1=C(SCCCO)C(=O)c2ccccc2C1=O
> 10 µM | CC1=C(SCCCCO)C(=O)c2ccccc2C1=O
> 10 µM | CC1=C(SCCCCCCO)C(=O)c2ccccc2C1=O
> 10 µM | CC1=C(SCCO)C(=O)c2ccccc2C1=O
> 10 µM | CC1=C(SC(C)C(C)O)C(=O)c2ccccc2C1=O (stereo not drawn)
> 10 µM | CC1=C(SCC(C)O)C(=O)c2ccccc2C1=O (racemic)

Test system: MES-SA
Assay: Concentration required for 50% inhibition of growth in human uterine sarcoma (MES-SA) cell line was determined
Type: functional, cell-based
Conditions: not given

Structure (SMILES) | IC50
CC1=C(SCCCO)C(=O)c2ccccc2C1=O | > 10 µM
CC1=C(SCCCCO)C(=O)c2ccccc2C1=O | > 10 µM
CC1=C(SCCCCCCO)C(=O)c2ccccc2C1=O | > 10 µM
CC1=C(SCCO)C(=O)c2ccccc2C1=O | > 10 µM
CC1=C(SC(C)C(C)O)C(=O)c2ccccc2C1=O (stereo not drawn) | > 10 µM
CC1=C(SCC(C)O)C(=O)c2ccccc2C1=O (racemic) | 7.11 µM

Test system: not listed separately
Assay: Concentration required for 50% inhibition of growth in human multidrug resistance uterine sarcoma (MES-SA/Dx5 ) cell line was determined
Type: functional, cell-based
Conditions: not given

Structure (SMILES) | IC50
CC1=C(SCCCO)C(=O)c2ccccc2C1=O | > 10 µM
CC1=C(SCCCCO)C(=O)c2ccccc2C1=O | > 10 µM
CC1=C(SCCCCCCO)C(=O)c2ccccc2C1=O | > 10 µM
CC1=C(SCCO)C(=O)c2ccccc2C1=O | > 10 µM
CC1=C(SC(C)C(C)O)C(=O)c2ccccc2C1=O (stereo not drawn) | > 10 µM
CC1=C(SCC(C)O)C(=O)c2ccccc2C1=O (racemic) | 5.1 µM

Test system: MCF7
Assay: Concentration required for 50% inhibition of growth in mammary gland breast adenocarcinoma (MCF-7) cell line was determined
Type: functional, cell-based
Conditions: Homo sapiens

IC50 | Structure (SMILES)
5.16 µM | CC1=C(SCCCO)C(=O)c2ccccc2C1=O
5.78 µM | CC1=C(SCCCCO)C(=O)c2ccccc2C1=O
9.28 µM | CC1=C(SCCCCCCO)C(=O)c2ccccc2C1=O
5.19 µM | CC1=C(SCCO)C(=O)c2ccccc2C1=O
> 10 µM | CC1=C(SC(C)C(C)O)C(=O)c2ccccc2C1=O (stereo not drawn)
4.61 µM | CC1=C(SCC(C)O)C(=O)c2ccccc2C1=O (racemic)

Test system: MKN-45
Assay: Concentration required for 50% inhibition of growth in human stomach adenocarcinoma (MKN45) cell line was determined
Type: functional, cell-based
Conditions: not given

IC50 | Structure (SMILES)
6.4 µM | CC1=C(SCCCO)C(=O)c2ccccc2C1=O
6.78 µM | CC1=C(SCCCCO)C(=O)c2ccccc2C1=O
> 10 µM | CC1=C(SCCCCCCO)C(=O)c2ccccc2C1=O
5.16 µM | CC1=C(SCCO)C(=O)c2ccccc2C1=O
5.64 µM | CC1=C(SC(C)C(C)O)C(=O)c2ccccc2C1=O (stereo not drawn)
3.92 µM | CC1=C(SCC(C)O)C(=O)c2ccccc2C1=O (racemic)

Test system: WI-38
Assay: Concentration required for 50% inhibition of growth in normal human lung fibroblast (WI-38 cell line) cell line was determined
Type: functional, cell-based
Conditions: not given

Structure (SMILES) | IC50
CC1=C(SCCCO)C(=O)c2ccccc2C1=O | > 10 µM
CC1=C(SCCCCO)C(=O)c2ccccc2C1=O | > 10 µM
CC1=C(SCCCCCCO)C(=O)c2ccccc2C1=O | > 10 µM
CC1=C(SCCO)C(=O)c2ccccc2C1=O | 7.37 µM
CC1=C(SC(C)C(C)O)C(=O)c2ccccc2C1=O (stereo not drawn) | > 10 µM
CC1=C(SCC(C)O)C(=O)c2ccccc2C1=O (racemic) | 5.06 µM

Test system: Detroit 551
Assay: Concentration required for 50% inhibition of growth in normal human embryonic skin fibroblast (Detroit551c) cell line was determined
Type: functional, cell-based
Conditions: not given

Structure (SMILES) | IC50
CC1=C(SCCCO)C(=O)c2ccccc2C1=O | 5.26 µM
CC1=C(SCCO)C(=O)c2ccccc2C1=O | 8.17 µM
CC1=C(SCC(C)O)C(=O)c2ccccc2C1=O (racemic) | 4.61 µM

Test system: HepG2
Assay: Concentration required for 50% inhibition of growth in human liver hepatoblastoma (Hep G2) cell line was determined
Type: functional, cell-based
Conditions: not given

IC50 | Structure (SMILES)
9.53 µM | CC1=C(SCCCO)C(=O)c2ccccc2C1=O
> 10 µM | CC1=C(SCCCCO)C(=O)c2ccccc2C1=O
> 10 µM | CC1=C(SCCCCCCO)C(=O)c2ccccc2C1=O
8.4 µM | CC1=C(SCCO)C(=O)c2ccccc2C1=O
> 10 µM | CC1=C(SC(C)C(C)O)C(=O)c2ccccc2C1=O (stereo not drawn)
5.59 µM | CC1=C(SCC(C)O)C(=O)c2ccccc2C1=O (racemic)

Test system: SW480
Assay: Concentration required for 50% inhibition of growth in human colon adenocarcinoma (SW-480) cell line.
Type: functional, cell-based
Conditions: not given

IC50 | Structure (SMILES)
4.85 µM | CC1=C(SCCCO)C(=O)c2ccccc2C1=O
4.51 µM | CC1=C(SCCCCO)C(=O)c2ccccc2C1=O
> 10 µM | CC1=C(SCCCCCCO)C(=O)c2ccccc2C1=O
5.14 µM | CC1=C(SCCO)C(=O)c2ccccc2C1=O
5.53 µM | CC1=C(SC(C)C(C)O)C(=O)c2ccccc2C1=O (stereo not drawn)
5.19 µM | CC1=C(SCC(C)O)C(=O)c2ccccc2C1=O (racemic)
